{"source": "patent US10662146B2", "about": "“Prodrugs of fencamfamine” (Praxis Bioresearch, LLC, priority 2015, dated 2020)", "key": {"[1]": {"system": "spontaneous locomotor activity", "assay": "Spontaneous locomotor activity (sLMA), oral administration", "type": "in vivo, Male Sprague-Dawley (SD) rats", "conditions": "p.o. 1, 5 or 10 mg/kg equivalent of PRX-002 (−), 60 min before 60 min test, vs vehicle", "description": "Male Sprague-Dawley (SD) were housed in groups of three under controlled conditions. Water and food were available ad libitum. The rats were kept for 1 week under these conditions before behavioral test. On the day of test rats were allowed to acclimate to the testing room for at least 30 min before test compound administration. Rats were randomly assigned into 4 groups.\nVehicle was 0.1% Tween-80 and 0.5% carboxymethylcellulose to which respective amount of PRX-P4-003 was added to obtain a clear solution.\nAnimals were p.o. administered with Veh or 3 doses of PRX-P4-003 [1, 5 or 10 mg/kg equivalent dose of active compound PRX-002 (−)] at 60 min before spontaneous locomotor activity (sLMA) test.\nThe rat was placed at the center of test chamber for the 60 min sLMA video recording. 60 min of spontaneous locomotion activity was video recorded and off line analyzed with Animal Behavior Video Tracking Analysis System (Ji Liang Software Technology Co., Ltd., Shanghai, China). Total traveling distance (cm) and duration (sec) of locomotor activity of every 15 min is presented FIGS. 11A and 11B."}, "[2]": {"system": "spontaneous locomotor activity", "assay": "Spontaneous locomotor activity (sLMA), intravenous administration", "type": "in vivo, Male SD rats", "conditions": "i.v. 25.8 mg/kg, equivalent to 10 mg/kg of PRX-002 (−), 90 min recording, vs vehicle", "description": "Male SD rats were intravenously administered with PRX-002(−) (2 mg/kg) and prodrug PRX-P4-003 [(25.8 mg/kg, equivalent to 10 mg/kg of PRX-002 (−)], and vehicle just before sLMA test.\nVehicle was: 10% PEG 400 (v/v)+30% (v/v) of (50% w/v) Hydroxypropyl-ß-cyclodextrin in water+60% (v/v) sterile water for injection (SWFI): 1 ml/kg volume.\nPRX-P4-003 solution was: 25.8 mg/ml PRX-P4-003 (25.8 mg/kg: equivalent to 10 mg/ml active drug, i.v. @volume of 1 ml/kg). 42.3 mg PRX-P4-003 was added to vehicle 1.639 ml, vortexed for 30 min under room temperature to get a uniform suspension solution, suspension solution was continuously stirred during dosage.\nThe PRX-P4-002(−) solution was: 2 mg/ml PRX-P4-002(−) (2 mg/kg, i.v.@volume of 1 ml/kg). 4.5 mg PRX-002(−) was added to 2.25 ml Vehicle, vortexed for 30 min under room temperature to get a clear solution, the solution was continuously stirred during dosage.\nRat was placed at the center of test chamber for the 90 min sLMA video recording. (n=3/group)."}, "[3]": {"assay": "Single dose oral PK study in male Sprague Dawley rats (plasma by LC-MS/MS)", "type": "in vivo", "conditions": "for Plasma concentration of PRX-P4-003 / AUC% extrap of PRX-P4-003 / Tmax: mean; for Tmax: male, rat, in vivo", "outline": "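Fasted adult male Sprague Dawley rats (8-10 weeks) got a single oral dose of prodrug, as Tween 80/0.5% CMC suspension, equivalent to 5 mg/kg PRX-002 (up to 10 or 15 mg/kg in some studies). Retro-orbital K2EDTA blood was sampled over 24 h. Plasma fencamfamine was measured by LC-MS/MS.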"}}, "note": "Values joined by “and” are separate entries in the source; they are usually repeats but may differ in a detail not shown here. Equal values may be shown once. “Also recorded” adds a separate entry of the source. Read-outs that look alike come from different tables or passages of the source.", "data": [{"smiles": "CCCCCCCCCCCCCCCCCC(=O)OCOC(=O)N(CC)C1C2CCC(C2)C1c1ccccc1", "note": "(single isomer, unassigned) [PRX-P4-003, N-(Octadecanoyloxymethoxycarbonyl)-(−)-N-ethyl-3-phenylbicyclo[2.2.1]heptan-2-amine]", "values": [{"measurement": "Spontaneous locomotor activity (sLMA): total traveling distance and duration", "setting": "[1]", "value": "dose dependent increase in sLMA; also recorded: both traveling distance and locomotion duration increased"}, {"measurement": "Spontaneous locomotor activity (sLMA): total traveling distance and duration", "setting": "[2]", "value": "no increase in sLMA; also recorded: practically no change"}, {"measurement": "Prodrug form present in the plasma", "setting": "[3]; PRX-P4-003 administered orally (FIG. 4)", "value": "almost none"}, {"measurement": "Plasma concentration of PRX-P4-003", "setting": "[3]; PRX-P4-003 oral 5 mg/kg b.w., 0.00 h", "value": 0.00}, {"measurement": "Plasma concentration of PRX-P4-003", "setting": "[3]; PRX-P4-003 oral 5 mg/kg b.w., 0.08 h", "value": 0.00}, {"measurement": "Plasma concentration of PRX-P4-003", "setting": "[3]; PRX-P4-003 oral 5 mg/kg b.w., 0.25 h", "value": 0.00}, {"measurement": "Plasma concentration of PRX-P4-003", "setting": "[3]; PRX-P4-003 oral 5 mg/kg b.w., 0.50 h", "value": 0.00}, {"measurement": "Plasma concentration of PRX-P4-003", "setting": "[3]; PRX-P4-003 oral 5 mg/kg b.w., 1.00 h", "value": 0.00}, {"measurement": "Plasma concentration of PRX-P4-003", "setting": "[3]; PRX-P4-003 oral 5 mg/kg b.w., 2.00 h", "value": 0.00}, {"measurement": "Plasma concentration of PRX-P4-003", "setting": "[3]; PRX-P4-003 oral 5 mg/kg b.w., 4.00 h", "value": 0.00}, {"measurement": "Plasma concentration of PRX-P4-003", "setting": "[3]; PRX-P4-003 oral 5 mg/kg b.w., 6.00 h", "value": 0.00}, {"measurement": "Plasma concentration of PRX-P4-003", "setting": "[3]; PRX-P4-003 oral 5 mg/kg b.w., 24.00 h", "value": 0.00}, {"measurement": "AUC% extrap of PRX-P4-003", "setting": "[3]; PRX-P4-003 oral 5 mg/kg, 5 mg/kg", "value": "0.0 ± 0.0% and 0.0%"}, {"measurement": "Plasma concentration of PRX-P4-003", "setting": "[3]; PRX-P4-003 oral 10 mg/kg b.w., 0.00 h", "value": 0.00}, {"measurement": "Plasma concentration of PRX-P4-003", "setting": "[3]; PRX-P4-003 oral 10 mg/kg b.w., 0.08 h", "value": 0.00}, {"measurement": "Plasma concentration of PRX-P4-003", "setting": "[3]; PRX-P4-003 oral 10 mg/kg b.w., 0.25 h", "value": 0.00}, {"measurement": "Plasma concentration of PRX-P4-003", "setting": "[3]; PRX-P4-003 oral 10 mg/kg b.w., 0.50 h", "value": 0.00}, {"measurement": "Plasma concentration of PRX-P4-003", "setting": "[3]; PRX-P4-003 oral 10 mg/kg b.w., 1.00 h", "value": 0.00}, {"measurement": "Plasma concentration of PRX-P4-003", "setting": "[3]; PRX-P4-003 oral 10 mg/kg b.w., 2.00 h", "value": 0.00}, {"measurement": "Plasma concentration of PRX-P4-003", "setting": "[3]; PRX-P4-003 oral 10 mg/kg b.w., 4.00 h", "value": 0.00}, {"measurement": "Plasma concentration of PRX-P4-003", "setting": "[3]; PRX-P4-003 oral 10 mg/kg b.w., 6.00 h", "value": 0.00}, {"measurement": "Plasma concentration of PRX-P4-003", "setting": "[3]; PRX-P4-003 oral 10 mg/kg b.w., 24.00 h", "value": 0.00}, {"measurement": "AUC% extrap of PRX-P4-003", "setting": "[3]; PRX-P4-003 oral 10 mg/kg", "value": 0.0, "unit": "%"}, {"measurement": "Active PRX-002 (−) Isomer formed in plasma", "setting": "[3]; PRX-P4-003 oral administration (FIG. 2, FIG. 4)", "value": "desired plasma concentration"}, {"measurement": "Tmax", "setting": "[3]; Sprague Dawley, PRX-P4-003 oral 10 mg/kg, read-out: Tmax of PRX-P4-003", "value": 0, "unit": "h"}, {"measurement": "Tmax", "setting": "[3]; Sprague Dawley, oral 5 mg/kg [equivalent to PRX-002 (−)], analyte: prodrug in plasma, read-out: Oral PK Parameters Tmax, Prodrug", "value": 0, "unit": "h"}, {"measurement": "Tmax", "setting": "[3]; Sprague-Dawley, PRX-P4-003 oral 5 mg/kg, read-out: Tmax of PRX-P4-003", "value": 0, "unit": "h"}]}]}
